Positions of bridges follow the written chain, without caps; N, C: chain ends. Non-standard residues stand in square brackets, D forms with d. No end group written: not given here. Abu = CC[C@H](N)C(=O)O; Dhb = C/C=C(\N)C(=O)O; Dha = C=C(N)C(=O)O
How the values were obtained:
E. ramosum MSK.23.96 = experiment: MIC assay, anaerobic broth dilution; format: cell-based, Erysipeloclostridium ramosum; conditions: BHIS, 37 °C, 48 h, 3-fold serial dilution
Description: (§1) Antibiotic treatment may result in collateral damage to commensal bacteria in the human microbiome, leading to dysbiosis and susceptibility to various diseases.[44] How lantibiotics impact Gram-positive commensals from the human gut has remained unclear. Therefore, we performed antimicrobial activity tests of these lantibiotics against selected Gram-positive human gut commensals, most of which belong to the Lachnospiraceae family, one of the most abundant bacterial families in the human gut.[27] In general, human gut commensals were more susceptible to the set of investigated lantibiotics compared to pathogens (Figure 3).
(§2) Elution Buffer (4 M guanidine hydrochloride, 20 mM Tris HCl, pH 7.5 at 25 °C, 100 mM NaCl, 1 M imidazole). Peptides eluted from the Ni resin were concentrated and desalted using 3 kDa Amicon filters (Millipore). For leader peptide removal, the peptide (1:20 trypsin to peptide) was incubated with the trypsin protease in 50 mM Tris-HCl, pH 8 overnight at 37 °C. Lastly, the core peptides were further purified with HPLC using an Agilent 1200 instrument (Agilent) as specified in general methods. About 1.5 mg recombinant peptide was obtained after HPLC purification per […]
(§3) All MIC assays were performed under anaerobic condition. […] Lantibiotics were dissolved in DPBS, and concentrations were determined by BCA assay (Pierce) according to the manufacturer’s protocol. […]

[1] = test system: S. epidermidis SK135 (MRSE); experiment: MIC assay, anaerobic broth dilution; format: cell-based, Staphylococcus epidermidis; conditions: BHIS, 37 °C, 48 h, 3-fold serial dilution
Description: Next, we set out to test the antimicrobial activities of these purified lantibiotics against a panel of Gram-positive bacteria that are representatives of some of the most prevalent human pathogens: VRE, Methicillin-resistant S. aureus USA300 (MRSA), Methicillin-resistant Staphylococcus epidermidis SK135 (MRSE), Listeria monocytogenes 10403S, and Clostridioides difficile VPI10463. We examined the growth of bacteria in a 96-well plate under a concentration gradient of lantibiotics under anaerobic conditions (Figure S2B). […]
(§4) For broth cultures, isolates were grown in pre-reduced BHI supplemented with 5 g/L yeast extract (Difco, BD) and 0.1% L-cysteine under anaerobic condition.
(§5) Minimal Inhibition Concentration (MIC) assay
(§6) All MIC assays were performed under anaerobic condition. Stationary bacterial culture in BHIS (BHI supplemented with 5 g/L yeast extract and 0.1% L-cysteine) were inoculated 1:100 to wells containing 200 µL BHIS in U-bottom 96-well plates. Lantibiotics were dissolved in DPBS, and concentrations were determined by BCA assay (Pierce) according to the manufacturer’s protocol.
(§7) Lantibiotic stock solutions were added to wells to reach desired final concentration, with 3-fold serial dilution across rows to create concentration gradients. Bacteria-inoculated wells without lantibiotics served as control. […]

B. luti MSK.20.18 = experiment: MIC assay, anaerobic broth dilution; format: cell-based, Blautia luti; conditions: BHIS, 37 °C, 48 h, 3-fold serial dilution
Description: as §1, with “3). […]” for “3).”
Isolation of human gut commensal bacteria
Isolation and growth of commensal bacteria was done as previously reported.5 Briefly, fresh donor fecal samples were transferred into an anaerobic chamber (Coy Labs) within 1 h of collection. The anaerobic chamber was maintained using a gas mix consisting of 5% hydrogen, 5% carbon dioxide and 90% nitrogen, and hydrogen was maintained at ~3.0% using an anaerobic gas infuser. […]
as §3

[2] = test system: panel of Gram-positive human pathogens (VRE, MRSA, MRSE, L. monocytogenes, C. difficile); experiment: MIC assay against the panel of Gram-positive human pathogens; format: cell-based; conditions: pathogen panel, Figure 3A-E; anaerobic
Description: Next, we set out to test the antimicrobial activities of these purified lantibiotics against a panel of Gram-positive bacteria that are representatives of some of the most prevalent human pathogens: VRE, Methicillin-resistant S. aureus USA300 (MRSA), Methicillin-resistant Staphylococcus epidermidis SK135 (MRSE), Listeria monocytogenes 10403S, and Clostridioides difficile VPI10463. We examined the growth of bacteria in a 96-well plate under a concentration gradient of lantibiotics under anaerobic conditions (Figure S2B).
as §2
Purification of blauticin from Blautia producta SCSK
Stationary anaerobic culture of BPSCSK was inoculated 1:100 to 1 L BHIS. Culture was incubated on a heating plate at 37 °C with 220 rpm stirring for 2 days in an anaerobic chamber. Bacteria were pelleted with 15,000 x g centrifugation for 15 min. The supernatant was acidified with acetic acid to pH 5.5 and filtered through a 0.22 um filter. Filtered supernatant was loaded onto a HiTrap SP HP column using an AKTA Pure FPLC, which was eluted sequentially with 3 CV of distilled water, 200 mM NaCl, 400 mM NaCl, 600 mM NaCl, 800 mM NaCl, and 1 M NaCl. The 800 mM NaCl eluate was concentrated with a 3 kDa Amicon filter, followed by dialyzation with DPBS using a 3 kDa Amicon filter. Purification of blauticin was confirmed by SDS-PAGE, VRE inhibition in vitro assay, and MALDI-TOF MS. […]
as §4, §5, §6, §7

[3] = test system: selected Gram-positive human gut commensals; experiment: MIC assay against the panel of Gram-positive human gut commensals; format: cell-based; conditions: commensal panel, Figure 3F-M; anaerobic
Description: as §1, §2, §3

[4] = test system: D. formicigenerans MSK.17.61; experiment: MIC assay, anaerobic broth dilution; format: cell-based, Dorea formicigenerans; conditions: BHIS, 37 °C, 48 h, 3-fold serial dilution
Description: as §1, §2, §3

With “nisin A (I[Dhb]AI[Dha]LC[Abu]PGCK[Abu]GALMGCNMK[Abu]A[Abu]CHCSIHV[Dha]K; thioether 8-11, 13-19, 23-26, 25-28, 3-7; UniProt P13068 24-57, looked up) [prototypical class I lantibiotic produced by L. lactis, food preservative; commercial nisin A]” the “nisin A MIC” value (E. ramosum MSK.23.96) was 0.889 µM, the “nisin A MIC” value [1] was 2.67 µM and the “nisin A MIC” value (B. luti MSK.20.18) was 0.0329 µM. The “inhibitory activity against pathogens based on MIC (ranking in words)” value [2] was “strongest inhibitory activities”, the “antimicrobial activity against human gut commensals (ranking in words)” value [3] was “generally more effective in growth inhibition” and the “nisin A MIC” value [4] was 0.0110 µM.
